Reference: patent publication EP2830605B1, “A COMBINATION MEDICAMENT COMPRISING PHENYLEPHRINE AND PARACETAMOL” (priority 2013, dated 2014)
Structures can show the parent of a compound that is named as a salt. Where two headings read alike, the source gives them in different places.

What was measured:
[1] = in vivo
[2] = cited from earlier work

## CNC[C@H](O)c1cccc(O)c1 [10 mg phenylephrine hydrochloride, phenylephrine hydrochloride]
[1]; human
  Ratio (increase of AUCtot), calculation for paracetamol 650 mg: ~1.73
[1]
  dose of phenylephrine hydrochloride alone that is similar: 16 to 20 mg
[2]; dose 10mg, hydrochloride
  Adverse Event Rate: 12.5%
[2]; dose 10mg, listed as Phenylephrine HCL, hydrochloride
  Adverse Event Rate: 12.5%
[2]; dose 15mg
  Adverse Event Rate: 43.8%
[2]; dose 25mg
  Adverse Event Rate: 81.3%
